Results as given in patent US20110230571A1, “DIAGNOSTIC AND THERAPEUTIC PROTOCOLS” (ALFRED HEALTH, priority 2007, published 2011).
Like-named read-outs stand apart in the source and are kept apart here.

Columns and labels:
Assay type in all cases: cell-based
[1] = tested on: HIV-1 from patient plasma on GHOSTX4R5 cells; conditions: for number of patients whose virus infected GHOSTX4R5 cells: of 5 patients
Description: Matched patient blood samples were collected from HIV-1 positive, viraemic individuals, in sodium heparin, ACD and EDTA blood tubes.
To prepare a viral isolate pellet, plasma was diluted 1 in 2 (to a final volume of 800 μL) and layered over a 20% v/v sucrose cushion. The plasma was centrifuged at 17,000×g for 2 hours at 4° C. The supernatant was aspirated and the viral pellet was resuspended in 50 μL media as follows: • Sodium heparin samples: • Resuspended in GHOST media. • ACD samples: • One sample resuspended in GHOST media. • One sample resuspended in GHOST media plus Heparin at 20 U/mL. • One sample resuspended in GHOST media plus EDTA* • EDTA samples: • One sample resuspended in GHOST media. • One sample resuspended in GHOST media plus Heparin at 20 U/mL. • One sample resuspended in GHOST media plus ACD*
*ACD and EDTA were obtained by filling collection tubes with 9 mL of GHOST media. This media was then used undiluted to resuspend the pellet.
All samples contained Polybrene at 2 μg/mL.
Samples were added to GHOSTX4R5 cells which had been seeded the night before in a 96-well flat-bottomed TC plate at 10,000 cells/well. The cells were subjected to Spinoculation—centrifugation at 1200×g for 2 hours at room temperature. The volume of media was increased to 150 μL with GHOSTX4R5 media and the cells were incubated for 5 days.
The cells were washed in PD, detached from the plate with Trypsin-EDTA, washed 2× in FACS wash and fixed with FACS Fix. The cells were then analyzed by flow cytometry for GFP expression as an indication of HIV-1 infection. Cells infected with HIV-1 lab strains 89.6, NL4-3 and AD8 were run concurrently as positive controls for infection. Uninfected cells were analyzed as a negative/background control.

[2] = tested on: HIV-1 from patient plasma on TZMbl cells; test: Infection of TZMbl indicator cells with virus pelleted from patient plasma (Example 2); conditions: samples in DMEM-10 (n=9), plasma collected in the named anti-coagulant
Description: (§1) Blood is collected from HIV-1-infected individuals in sodium heparin, anti-coagulant citrate dextrose (ACD) a ethylenediamine tetraacetic acid (EDTA) and/or any other anti-coagulant blood tubes. The plasma isolated from each tube is stored at −80° C. until use.
To pellet the virus, plasma was diluted 1 in 2 (to a final volume of 800 μL) and layered over a 20% w/v sucrose cushion. The plasma was centrifuged at 17,000×g for 2 hours at 4° C. […]
Samples are also resuspended in DMEM-10 media and added to TZMbl cells. […] Upon integration of the host genome with the HIV-1 genome, these two genes are expressed and can be measured (NIH AIDS Research and Reference Reagent Program, Division of AIDS, NIAID, NIH (Derdeyn et al. Journal of Virology 74:8358-8367, 2000; Platt et al. Journal of Virology 72:2855-2864, 1998; Wei et al. Antimicrobial Agents and Chemotherapy 46:1896-1905, 2002). Following HIV infection of TZMbls, there is an increase in β-gal expression over the next 5 days. Infection is most simply measured by counting the number of cells that express β-gal (or are blue). The maximum number of blue cells that can be counted by this assay is 300 cells. […]
At day 5 post-infection, GHOST cells are washed in phosphate buffered saline (PBS), detached from the plate with Trypsin-EDTA, washed twice in FACS wash and fixed with FACS Fix. […] Uninfected cells are analyzed as a negative/background control.

[3] = tested on: HIV-1 from patient plasma on GHOSTX4R5 cells
Description: as §1
To pellet the virus, plasma was diluted 1 in 2 (to a final volume of 800 μL) and layered over a 20% w/v sucrose cushion. The plasma was centrifuged at 17,000×g for 2 hours at 4° C. The supernatant was aspirated and the viral pellet (viral isolate) was resuspended in 50 μL of GHOST media (Dulbecco's Modified Eagle's Medium (DMEM, Invitrogen, Auckland, NZ), 10% v/v Cosmic calf serum (Quantum Scientific, Milton, Qld), 1× Penicillin/Streptomycin/Glutamine (Invitrogen), 1 μg/mL Puromycin (Sigma, St. Louis, Mo.), 100 μg/mL Hygromycin (Sigma), 500 μg/mL G418 (AG Scientific, San Diego, Calif.)) or DMEM-10 (DMEM, 10% v/v Cosmic calf serum) in the presence and absence of Heparin (20 U/mL, David Bull Laboratories, Melbourne, Australia). All samples contain polybrene at 2 μg/mL. Samples resuspended in DMEM-10 contain 40 μg/mL DEAE-Dextran.
Samples were resuspended in GHOST media and added to GHOSTX4R5 cells which have been seeded 24 hours previously in a 96-well flat-bottomed plate at 10,000 cells/well. GHOSTX4R5 cells are an adherent cell line derived from human osteosarcoma (HOS cells). They are stably transfected with the HIV-2 LTR driving hGFP construct and express green fluorescent protein (GFP) when productively infected with HIV or SIV. The cells also stably express surface CD4, CCR5 and CXCR4 (Morner et al. Journal of Virology 73:2342-2349, 1999) (NIH AIDS Research and Reference Reagent Program, Division of AIDS, NIAID, NIH).
Both cell lines are infected at the same time with HIV-1 strains 89.6 (uses both CXCR4 and CCR5), NL4-3 (uses CXCR4 only) and AD8 (uses CCR5 only) as positive controls for infection. The cells are then subjected to spinoculation—centrifugation at 1200×g for 2 hours at room temperature. The volume of media is increased to 150 μL with media and the cells are incubated for 5 days. Samples are observed for the presence of clot formation at all stages.
At day 5 post-infection, GHOST cells are washed in phosphate buffered saline (PBS), detached from the plate with Trypsin-EDTA, washed twice in FACS wash and fixed with FACS Fix. The cells are then analyzed by flow cytometry for expression of GFP as an indication of HIV-1 infection. TZMbl cells are washed in PBS and fixed for 5 mins in fixative. Cells are washed once and 50 μL of β-gal substrate is added to each well. The cells are incubated at 37° C. for 2 hours. […] Under a light microscope, the number of blue-stained (HIV-1 infected) foci are counted. Uninfected cells are analyzed as a negative/background control.

[4] = Day 5 post-infection, named anti-coagulant combination
[5] = GHOSTX4R5 cells, samples in GHOST media (n=10), plasma collected in the named anti-coagulant

| Compound | mean number of infected cells ([1]; 5 patients, ACD or EDTA added to samples) | number of patients whose virus infected GHOSTX4R5 cells [1, 4] | patient samples with viral infection observed [2] | patient samples with viral infection observed [3, 5] | mean number of GFP positive cells per 100,000 cells ([1]; 5 patients, blood collected in sodium heparin, compared with other anti-coagulant combinations) | mean number of infected cells ([1]; 5 patients, heparin added to samples collected in ACD or EDTA, versus ACD or EDTA alone) | number of patients whose virus infected GHOSTX4R5 cells ([1]; viral isolates derived from ACD plasma to which heparin had been added) | patient samples with viral infection observed ([3]; GHOSTX4R5 cells (n=10), plasma collected in ACD, heparin added to the resuspended plasma pellet) | patient samples with viral infection observed ([3]; GHOSTX4R5 cells (n=10), samples collected in EDTA to which heparin had been added) |
| --- | --- | --- | --- | --- | --- | --- | --- | --- | --- |
| O=C(O)CN(CCN(CC(=O)O)CC(=O)O)CC(=O)O [EDTA, ethylenediamine tetraacetic acid] | very low | 4 | 22% | 30% |  |  |  |  |  |
| heparin |  | 3 | 33% | 40% | highest | slightly improved | 5 | 50% | 40% |
